Drawing on PubChem BioAssay (NCI), this text covers TGI and GI50 for ten molecules.

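In this assay, cells in 96-well plates receive the compound at five concentrations for 48 hours. Endpoints are linearly interpolated between the surrounding concentrations. The concentration for 50% growth inhibition is given as GI50. At the TGI there is no net growth.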 A value given as a limit tells only on which side of the number the result lay.

Some test systems named below: ACHN renal; COLO 205 colon; HCT-116 colon; HOP-92 NSCLC; M14 melanoma; NCI-H226 lung; OVCAR-5 ovarian; SK-OV-3 ovarian; SNB-75 CNS; SW-620 colon.
Assay in all cases: NCI-60 cell line screen, 48 h

As for `COc1cc2nc(Sc3c([N+](=O)[O-])ncn3C)[nH]c2cc1OC`, the TGI with ACHN renal is above 100 µM; in the assay with COLO 205 colon it was 30.2 µM; in the assay on HCT-116 colon it was above 100 µM; in the assay with HOP-92 NSCLC, 45 µM; in the assay with M14 melanoma it was above 100 µM; with NCI-H226 lung, above 100 µM. The TGI in the assay on OVCAR-5 ovarian, in the assay with SK-OV-3 ovarian, in the assay with SNB-75 CNS and in the assay with SW-620 colon was above 100 µM throughout.

`CN1CCC[C@@H]1CCO[C@](C)(c1ccccc1)c1ccc(Cl)cc1`: the GI50 with ACHN renal was 6.31 µM; in the assay with COLO 205 colon, 1.75 µM; with HCT-116 colon, 3.62 µM; in the assay with HOP-92 NSCLC it was 1.8 µM; with M14 melanoma, 1.82 µM; in the assay on NCI-H226 lung, 10.5 µM. Besides, the GI50 in the assay with OVCAR-5 ovarian is 5.34 µM; in the assay on SK-OV-3 ovarian, 4.46 µM; in the assay on SNB-75 CNS, 2.29 µM; with SW-620 colon it was 5.5 µM. For the same molecule, the TGI in the assay with ACHN renal stood at 19 µM; in the assay with COLO 205 colon, 3.56 µM; with HCT-116 colon, 13.7 µM; in the assay on HOP-92 NSCLC it was 8.37 µM; in the assay on M14 melanoma, 3.45 µM; with NCI-H226 lung it was 25.3 µM. Moreover, the TGI amounted to 18.6 µM in the assay on OVCAR-5 ovarian, 17.8 µM in the assay with SK-OV-3 ovarian, 12.7 µM in the assay on SNB-75 CNS and 18.8 µM with SW-620 colon.

For `COc1ccc2c(c1)CCc1c(-c3noc4c3CCc3cc(OC)ccc3-4)noc1-2`, the TGI with ACHN renal, with COLO 205 colon, in the assay on HCT-116 colon, in the assay with HOP-92 NSCLC, in the assay with M14 melanoma and in the assay with NCI-H226 lung was above 100 µM throughout. Also, the TGI in the assay on OVCAR-5 ovarian, with SK-OV-3 ovarian, in the assay with SNB-75 CNS and in the assay with SW-620 colon was above 100 µM throughout.

As to `COc1ccc(C(c2ccc(C(C)C)cc(=O)c2O)c2ccc3cccnc3c2O)cc1` (stereo not drawn), the TGI in the assay with ACHN renal stood at 7.53 µM; with COLO 205 colon, 19.3 µM; with HCT-116 colon, 12.8 µM; in the assay on HOP-92 NSCLC, 0.898 µM; in the assay on M14 melanoma, 3.06 µM; with NCI-H226 lung it was 4.38 µM. Besides, the TGI was 6.32 µM in the assay on OVCAR-5 ovarian, 16.4 µM in the assay with SK-OV-3 ovarian, 0.589 µM in the assay with SNB-75 CNS and 24.4 µM in the assay with SW-620 colon.

Turning to `COc1ccc(-c2cnc3ccnn3c2-c2cc(OC)c(OC)c(OC)c2)cc1`, the GI50 with ACHN renal is 6.19 µM; in the assay with COLO 205 colon, 2.1 µM; in the assay on HCT-116 colon, 2.97 µM; in the assay with HOP-92 NSCLC it was above 100 µM; in the assay on M14 melanoma it was 2.65 µM; in the assay with NCI-H226 lung it was 8.13 µM. Further, the GI50 in the assay on OVCAR-5 ovarian was 4.42 µM; in the assay on SK-OV-3 ovarian, 4.63 µM; in the assay with SNB-75 CNS, 2.2 µM; in the assay with SW-620 colon, 2.36 µM. For the same molecule, the TGI in the assay with ACHN renal was above 100 µM; in the assay on COLO 205 colon, 5.51 µM; in the assay on HCT-116 colon, above 100 µM; with HOP-92 NSCLC it was above 100 µM; in the assay with M14 melanoma, 35.5 µM; in the assay with NCI-H226 lung, above 100 µM. The TGI in the assay with OVCAR-5 ovarian is above 100 µM; in the assay on SK-OV-3 ovarian it was above 100 µM; with SNB-75 CNS it was 62.7 µM; in the assay on SW-620 colon, above 100 µM.

Take `NC1=C(Cl)C(=O)c2ccc(S(N)(=O)=O)cc2C1=O`: the GI50 in the assay with ACHN renal is 0.263 µM; in the assay on COLO 205 colon, 1.57 µM; with HCT-116 colon it was 0.224 µM; with HOP-92 NSCLC, 2.04 µM; in the assay with M14 melanoma it was 0.134 µM; in the assay with NCI-H226 lung it was 0.231 µM. Besides, the GI50 in the assay on OVCAR-5 ovarian was 0.251 µM; in the assay with SK-OV-3 ovarian, 1.67 µM; in the assay on SNB-75 CNS it was 0.144 µM; in the assay on SW-620 colon it was 0.293 µM. Further, the TGI in the assay with ACHN renal stood at 0.895 µM; in the assay on COLO 205 colon, 2.98 µM; with HCT-116 colon it was 0.602 µM; in the assay on HOP-92 NSCLC it was 3.73 µM; with M14 melanoma it was 0.278 µM; in the assay on NCI-H226 lung it was 0.595 µM. The TGI amounted to 0.658 µM in the assay with OVCAR-5 ovarian, 3.11 µM in the assay with SK-OV-3 ovarian, 0.293 µM with SNB-75 CNS and 0.89 µM in the assay on SW-620 colon.

On to `N/C(=N\N=C\c1cccs1)NO`, for which the TGI in the assay on ACHN renal, in the assay on COLO 205 colon, with HCT-116 colon, in the assay with HOP-92 NSCLC, with M14 melanoma and in the assay on NCI-H226 lung was above 100 µM in each case. Besides, the TGI in the assay on OVCAR-5 ovarian, in the assay with SK-OV-3 ovarian, in the assay on SNB-75 CNS and with SW-620 colon was above 100 µM each time.

With `CCC(C)OC(=O)C1C2CCC(O2)C1C(=O)O` (stereo not drawn), the TGI is above 100 µM in the assay with ACHN renal; above 60.1 µM in the assay on COLO 205 colon; above 56.3 µM in the assay with HCT-116 colon; above 100 µM in the assay with HOP-92 NSCLC; above 100 µM in the assay with M14 melanoma; above 100 µM with NCI-H226 lung. The TGI with OVCAR-5 ovarian was above 100 µM; in the assay on SK-OV-3 ovarian, above 100 µM; in the assay on SNB-75 CNS, above 100 µM; in the assay with SW-620 colon, above 32.1 µM.

For `O=C(O)C(Cc1c[nH]c2ccccc12)N=Cc1nc(-c2ccccc2)oc1O` (stereo not drawn), the TGI in the assay with ACHN renal, in the assay with COLO 205 colon, in the assay on HCT-116 colon, with HOP-92 NSCLC, with M14 melanoma and in the assay on NCI-H226 lung was above 100 µM throughout. Also, the TGI in the assay on OVCAR-5 ovarian, with SK-OV-3 ovarian, in the assay with SNB-75 CNS and in the assay with SW-620 colon was above 100 µM in each case.

For `O=C(O)C1NCCc2c1[nH]c1ccccc21` (stereo not drawn), the GI50 with ACHN renal, with COLO 205 colon, in the assay on HCT-116 colon, in the assay on HOP-92 NSCLC, with M14 melanoma and with SK-OV-3 ovarian was above 100 µM in each case. In addition, the GI50 with SNB-75 CNS and with SW-620 colon was above 100 µM in each case. Further, the TGI with ACHN renal, in the assay on COLO 205 colon, in the assay with HCT-116 colon, with HOP-92 NSCLC, with M14 melanoma and with NCI-H226 lung was above 100 µM in each case. The TGI in the assay on OVCAR-5 ovarian, in the assay with SK-OV-3 ovarian, in the assay on SNB-75 CNS and in the assay on SW-620 colon was above 100 µM in each case.
